Usually inhibition stands for the relative decrease from the control value, in per cent.

SMILES strings stand for the structures.

These results are taken from ChEMBL document CHEMBL2424622, “Development of amino-pyrimidine inhibitors of c-Jun N-terminal kinase (JNK): kinase profiling guided optimization of a 1,2,3-benzotriazole lead” (Bioorg Med Chem Lett, 2013).

The target in test [1] is T1, Mitogen-activated protein kinase kinase kinase 5 (Homo sapiens) (UniProt Q99683).
T1 sequence (whole entry): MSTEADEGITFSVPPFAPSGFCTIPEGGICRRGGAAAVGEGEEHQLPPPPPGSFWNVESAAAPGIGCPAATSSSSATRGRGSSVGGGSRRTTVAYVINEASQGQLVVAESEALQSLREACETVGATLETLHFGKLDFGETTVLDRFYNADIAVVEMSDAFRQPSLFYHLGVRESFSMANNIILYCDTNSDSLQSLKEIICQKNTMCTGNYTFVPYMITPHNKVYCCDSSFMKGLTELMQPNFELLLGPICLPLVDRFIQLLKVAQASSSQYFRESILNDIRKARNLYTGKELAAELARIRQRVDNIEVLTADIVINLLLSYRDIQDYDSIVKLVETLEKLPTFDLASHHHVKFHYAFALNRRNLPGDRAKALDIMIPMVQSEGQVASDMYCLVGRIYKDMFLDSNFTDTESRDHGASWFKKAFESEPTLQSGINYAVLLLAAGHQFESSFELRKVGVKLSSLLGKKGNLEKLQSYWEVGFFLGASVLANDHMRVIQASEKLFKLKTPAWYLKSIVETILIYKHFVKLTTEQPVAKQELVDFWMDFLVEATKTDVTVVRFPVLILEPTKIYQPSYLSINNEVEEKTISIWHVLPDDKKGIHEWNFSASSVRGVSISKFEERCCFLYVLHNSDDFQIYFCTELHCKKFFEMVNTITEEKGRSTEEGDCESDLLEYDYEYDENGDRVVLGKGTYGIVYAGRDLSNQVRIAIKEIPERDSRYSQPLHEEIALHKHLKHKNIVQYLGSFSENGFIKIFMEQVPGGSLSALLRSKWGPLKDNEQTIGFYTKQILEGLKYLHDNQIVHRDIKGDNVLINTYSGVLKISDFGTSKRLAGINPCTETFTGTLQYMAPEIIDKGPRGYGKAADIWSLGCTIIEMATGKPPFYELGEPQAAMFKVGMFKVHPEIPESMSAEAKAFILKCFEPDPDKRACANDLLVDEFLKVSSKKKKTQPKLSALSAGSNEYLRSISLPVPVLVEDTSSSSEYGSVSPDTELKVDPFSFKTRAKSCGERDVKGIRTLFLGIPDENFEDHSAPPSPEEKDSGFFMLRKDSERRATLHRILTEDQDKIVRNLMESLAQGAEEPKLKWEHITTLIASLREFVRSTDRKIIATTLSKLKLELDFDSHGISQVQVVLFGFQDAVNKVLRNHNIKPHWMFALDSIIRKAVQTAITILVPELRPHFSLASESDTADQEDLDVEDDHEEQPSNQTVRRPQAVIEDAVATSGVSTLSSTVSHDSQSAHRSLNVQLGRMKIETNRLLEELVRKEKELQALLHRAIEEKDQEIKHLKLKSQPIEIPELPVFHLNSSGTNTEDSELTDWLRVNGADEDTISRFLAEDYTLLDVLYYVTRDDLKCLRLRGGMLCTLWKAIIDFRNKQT
Nature of the test: Competitive binding affinity to MAP3K5 (unknown origin) at 10 uM in presence of ATP relative to control.

The target in test [2] is Ribosomal protein S6 kinase alpha-6 (Homo sapiens) (UniProt Q9UK32). As to the kind of experiment: Competitive binding affinity to RPS6KA6 kinase domain 2 (unknown origin) at 10 uM in presence of ATP relative to control.
Test [3] has as its target T2, Serine/threonine-protein kinase D1 (Homo sapiens) (UniProt Q15139).
T2 sequence (whole entry): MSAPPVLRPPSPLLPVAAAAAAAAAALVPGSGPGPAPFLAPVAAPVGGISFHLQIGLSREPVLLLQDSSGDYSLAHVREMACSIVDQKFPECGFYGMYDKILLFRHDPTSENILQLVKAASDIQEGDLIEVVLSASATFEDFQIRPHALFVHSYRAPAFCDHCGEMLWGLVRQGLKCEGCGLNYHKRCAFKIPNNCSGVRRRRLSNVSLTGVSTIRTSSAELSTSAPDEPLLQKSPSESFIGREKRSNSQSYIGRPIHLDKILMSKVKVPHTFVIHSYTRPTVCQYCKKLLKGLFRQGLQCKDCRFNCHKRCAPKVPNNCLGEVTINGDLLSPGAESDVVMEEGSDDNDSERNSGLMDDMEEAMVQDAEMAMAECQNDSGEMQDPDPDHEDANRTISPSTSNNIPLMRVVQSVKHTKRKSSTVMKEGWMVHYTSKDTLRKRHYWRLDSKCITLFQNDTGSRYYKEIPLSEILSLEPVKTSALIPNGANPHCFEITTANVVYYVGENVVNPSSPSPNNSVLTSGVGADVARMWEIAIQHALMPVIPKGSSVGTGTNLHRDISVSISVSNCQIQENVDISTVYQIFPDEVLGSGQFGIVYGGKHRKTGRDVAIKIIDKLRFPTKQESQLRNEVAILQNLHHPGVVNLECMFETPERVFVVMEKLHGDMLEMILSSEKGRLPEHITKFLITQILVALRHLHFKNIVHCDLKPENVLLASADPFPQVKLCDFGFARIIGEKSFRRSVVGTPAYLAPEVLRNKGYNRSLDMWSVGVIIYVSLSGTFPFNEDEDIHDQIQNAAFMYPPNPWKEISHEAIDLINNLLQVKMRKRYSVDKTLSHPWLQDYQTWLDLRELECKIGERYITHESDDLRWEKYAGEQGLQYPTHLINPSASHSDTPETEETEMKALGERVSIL
As to the kind of experiment: Competitive binding affinity to PRKD1 (unknown origin) at 10 uM in presence of ATP relative to control.

The test system of test [4] is Phosphatidylinositol 4,5-bisphosphate 3-kinase catalytic subunit alpha isoform (Homo sapiens), P42336 [E545K]. Nature of the test: Competitive binding affinity to PIK3CA E545K mutant (unknown origin) at 10 uM in presence of ATP relative to control.
Chain of Phosphatidylinositol 4,5-bisphosphate 3-kinase catalytic subunit alpha isoform (Homo sapiens), P42336 [E545K] (P42336 whole entry E545K, canonical isoform): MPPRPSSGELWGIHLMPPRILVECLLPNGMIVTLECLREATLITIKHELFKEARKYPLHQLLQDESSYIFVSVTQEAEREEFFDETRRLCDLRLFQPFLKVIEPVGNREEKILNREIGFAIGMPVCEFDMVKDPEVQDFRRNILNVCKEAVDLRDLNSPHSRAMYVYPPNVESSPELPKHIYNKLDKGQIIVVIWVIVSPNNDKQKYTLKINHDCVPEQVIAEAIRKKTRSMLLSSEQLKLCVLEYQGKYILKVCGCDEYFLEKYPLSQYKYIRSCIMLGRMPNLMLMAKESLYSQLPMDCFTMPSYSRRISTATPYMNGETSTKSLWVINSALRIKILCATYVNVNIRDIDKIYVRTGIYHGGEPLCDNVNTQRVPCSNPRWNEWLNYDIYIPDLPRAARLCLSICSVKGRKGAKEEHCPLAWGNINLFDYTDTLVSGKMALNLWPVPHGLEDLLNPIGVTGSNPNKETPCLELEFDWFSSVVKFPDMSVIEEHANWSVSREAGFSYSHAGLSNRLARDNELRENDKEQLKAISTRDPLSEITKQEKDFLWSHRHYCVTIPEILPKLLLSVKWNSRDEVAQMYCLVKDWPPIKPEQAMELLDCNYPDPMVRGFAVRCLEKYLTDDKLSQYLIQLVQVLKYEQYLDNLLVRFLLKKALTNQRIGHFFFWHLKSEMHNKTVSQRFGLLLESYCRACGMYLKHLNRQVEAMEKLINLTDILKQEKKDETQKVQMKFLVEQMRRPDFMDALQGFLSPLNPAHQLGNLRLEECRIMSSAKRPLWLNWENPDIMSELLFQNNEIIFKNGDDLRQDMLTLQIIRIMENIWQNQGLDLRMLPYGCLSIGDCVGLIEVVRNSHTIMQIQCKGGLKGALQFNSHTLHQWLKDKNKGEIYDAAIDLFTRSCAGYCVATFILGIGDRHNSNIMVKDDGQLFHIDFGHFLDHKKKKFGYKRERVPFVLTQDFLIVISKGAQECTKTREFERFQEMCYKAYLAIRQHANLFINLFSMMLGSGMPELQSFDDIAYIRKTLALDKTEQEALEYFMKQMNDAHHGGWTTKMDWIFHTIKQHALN

Chain of Ribosomal protein S6 kinase alpha-6 (Homo sapiens) (Q9UK32 whole entry, the tested form may be a part): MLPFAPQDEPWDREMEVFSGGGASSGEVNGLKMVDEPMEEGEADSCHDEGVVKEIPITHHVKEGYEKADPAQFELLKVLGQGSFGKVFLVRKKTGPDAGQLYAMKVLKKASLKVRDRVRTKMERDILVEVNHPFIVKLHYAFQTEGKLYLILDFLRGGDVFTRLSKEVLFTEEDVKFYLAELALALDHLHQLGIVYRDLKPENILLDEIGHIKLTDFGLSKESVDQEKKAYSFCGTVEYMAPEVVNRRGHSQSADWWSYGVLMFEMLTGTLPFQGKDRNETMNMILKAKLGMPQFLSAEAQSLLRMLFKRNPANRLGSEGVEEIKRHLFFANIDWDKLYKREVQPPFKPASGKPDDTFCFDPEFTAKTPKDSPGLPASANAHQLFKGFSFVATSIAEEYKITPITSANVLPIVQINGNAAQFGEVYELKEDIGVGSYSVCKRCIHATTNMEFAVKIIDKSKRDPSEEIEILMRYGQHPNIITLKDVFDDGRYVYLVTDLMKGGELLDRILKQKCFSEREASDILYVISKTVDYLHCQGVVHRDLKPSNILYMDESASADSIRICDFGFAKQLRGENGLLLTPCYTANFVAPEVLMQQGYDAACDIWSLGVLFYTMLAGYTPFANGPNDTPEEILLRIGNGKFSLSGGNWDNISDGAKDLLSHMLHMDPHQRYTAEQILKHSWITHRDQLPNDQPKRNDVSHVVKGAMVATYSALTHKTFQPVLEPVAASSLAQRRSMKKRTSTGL

For the molecule `O[C@H]1CC[C@H](Nc2nccc(-n3ccc4ccccc43)n2)CC1`, the inhibition in test [1] was below 50%; in test [2], 84%; in test [3], 95%; in test [4], below 50%.
In the case of `O[C@H]1CC[C@H](Nc2nccc(-n3ncc4ccccc43)n2)CC1`, the inhibition is below 50% in test [1], 100% in test [2], 96% in test [3] and 82% in test [4].
Turning to `O[C@H]1CC[C@H](Nc2nccc(-n3nnc4ccccc43)n2)CC1`, the inhibition was below 50% in test [1], 100% in test [2], 98% in test [3] and 88% in test [4].
